Target: recombinant full length HPK-1 enzyme (Homo sapiens (Human), UniProt Q92918)
Assay: HPK-1 biochemical enzyme assay (ADP-Glo kinase inhibition)
Conditions: recombinant full length HPK-1 6.8 nM, 10 μM ATP, 12.5 μM MBP, 30 mins at 25° C.
How it was run: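 ADP-Glo readout of ADP formed after a 30 min, 25° C. reaction of 6.8 nM full-length HPK-1 with swine myelin basic protein (12.5 μM) and ATP (10 μM) in Tris pH 7.4 buffer with MgCl2, DTT and BSA. Ten compound concentrations tested; percent inhibition set against vehicle (0%) and no-enzyme (100%) controls gave IC50.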

Chain of recombinant full length HPK-1 enzyme (Q92918 whole entry, species assumed): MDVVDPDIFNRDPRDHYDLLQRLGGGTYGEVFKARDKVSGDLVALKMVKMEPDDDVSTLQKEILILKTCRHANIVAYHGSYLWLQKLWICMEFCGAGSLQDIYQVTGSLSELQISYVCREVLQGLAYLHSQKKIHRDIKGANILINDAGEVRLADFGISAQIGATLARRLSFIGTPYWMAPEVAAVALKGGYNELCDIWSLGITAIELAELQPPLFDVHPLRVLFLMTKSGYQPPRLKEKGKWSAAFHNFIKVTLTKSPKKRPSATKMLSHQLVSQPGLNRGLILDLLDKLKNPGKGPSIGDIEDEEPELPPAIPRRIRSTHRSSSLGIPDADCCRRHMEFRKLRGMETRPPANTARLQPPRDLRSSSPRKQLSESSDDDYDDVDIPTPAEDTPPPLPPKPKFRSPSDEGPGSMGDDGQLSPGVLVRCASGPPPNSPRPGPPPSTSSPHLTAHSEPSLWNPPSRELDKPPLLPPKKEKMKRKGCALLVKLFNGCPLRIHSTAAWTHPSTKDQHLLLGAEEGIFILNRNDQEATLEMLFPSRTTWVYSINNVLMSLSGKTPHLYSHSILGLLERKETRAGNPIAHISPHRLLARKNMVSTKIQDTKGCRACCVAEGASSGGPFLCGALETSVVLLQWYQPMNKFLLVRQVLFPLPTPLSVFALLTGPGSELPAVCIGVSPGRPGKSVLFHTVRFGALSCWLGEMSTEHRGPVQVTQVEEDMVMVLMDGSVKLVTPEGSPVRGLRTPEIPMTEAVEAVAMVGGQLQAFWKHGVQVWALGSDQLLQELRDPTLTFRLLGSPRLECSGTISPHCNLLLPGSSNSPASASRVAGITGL

Row | Compound | IC50
1 | Cc1c(Nc2cc[nH]c(=O)c2C(=O)Nc2ccc(N3CCN(C(=O)C4CC4)CC3)cc2)cnc2c1NCC(C)O2 (stereo not shown) [Example 372, N-(4-(4-(cyclopropanecarbonyl)piperazin-1-yl)phenyl)-4-((3,8-dimethyl-2,3-dihydro-1H-pyrido[2,3-b][1,4]oxazin-7-yl)amino)-2-oxo-1,2-dihydropyridine-3-carboxamide] | ≤ 0.01 µM
2 | Cc1c(Nc2cc[nH]c(=O)c2C(=O)Nc2ccc(N3CCN(C(=O)C4CN(C)C4)CC3)cc2)cnc2c1NCCO2 [Example 373, 4-((8-methyl-2,3-dihydro-1H-pyrido[2,3-b][1,4]oxazin-7-yl)amino)-N-(4-(4-(1-methylazetidine-3-carbonyl)piperazin-1-yl)phenyl)-2-oxo-1,2-dihydropyridine-3-carboxamide] | 0.01 to 0.1 µM
3 | Cc1c(Nc2cc[nH]c(=O)c2C(=O)Nc2ccc(N3CCN(C4CC4)CC3)c(F)c2)cnc2c1NCCO2 [Example 376, N-(4-(4-cyclopropylpiperazin-1-yl)-3-fluorophenyl)-4-((8-methyl-2,3-dihydro-1H-pyrido[2,3-b][1,4]oxazin-7-yl)amino)-2-oxo-1,2-dihydropyridine-3-carboxamide] | ≤ 0.01 µM
4 | Cc1c(Nc2cc[nH]c(=O)c2C(=O)Nc2ccc(N3CCC(N(C)C(=O)C(C)C)C3)cc2)cnc2c1NCCO2 (stereo not shown) [Example 381, 4-((8-methyl-2,3-dihydro-1H-pyrido[2,3-b][1,4]oxazin-7-yl)amino)-N-(4-(3-(N-methylisobutyramido)pyrrolidin-1-yl)phenyl)-2-oxo-1,2-dihydropyridine-3-carboxamide] | 0.01 to 0.1 µM
5 | Cc1c(Nc2cc[nH]c(=O)c2C(=O)Nc2ccc(N3CCN(C(C)(C)C)CC3)cc2)cnc2c1NCCO2 [Example 383, N-(4-(4-(tert-butyl)piperazin-1-yl)phenyl)-4-((8-methyl-2,3-dihydro-1H-pyrido[2,3-b][1,4]oxazin-7-yl)amino)-2-oxo-1,2-dihydropyridine-3-carboxamide] | ≤ 0.01 µM
6 | CCN1CCN(c2ccc(NC(=O)c3c(Nc4cnc5c(c4C)NCC(C)O5)cc[nH]c3=O)cc2F)CC1 (stereo not shown) [Example 385, 4-((3,8-dimethyl-2,3-dihydro-1H-pyrido[2,3-b][1,4]oxazin-7-yl)amino)-N-(4-(4-ethylpiperazin-1-yl)-3-fluorophenyl)-2-oxo-1,2-dihydropyridine-3-carboxamide] | 0.01 to 0.1 µM
7 | CCN1CCN(c2ccc(NC(=O)c3c(Nc4cnc5c(c4C)NCC(C)O5)cc[nH]c3=O)cc2F)CC1 (stereo not shown) [Example 386, 4-((3,8-dimethyl-2,3-dihydro-1H-pyrido[2,3-b][1,4]oxazin-7-yl)amino)-N-(4-(4-ethylpiperazin-1-yl)-3-fluorophenyl)-2-oxo-1,2-dihydropyridine-3-carboxamide] | ≤ 0.01 µM
8 | Cc1c(Nc2cc[nH]c(=O)c2C(=O)Nc2ccc(N3CCN(CCF)CC3)c(F)c2)cnc2c1NCCO2 [Example 387, N-(3-fluoro-4-(4-(2-fluoroethyl)piperazin-1-yl)phenyl)-4-((8-methyl-2,3-dihydro-1H-pyrido[2,3-b][1,4]oxazin-7-yl)amino)-2-oxo-1,2-dihydropyridine-3-carboxamide] | 0.01 to 0.1 µM
9 | Cc1c(Nc2cc[nH]c(=O)c2C(=O)Nc2ccc(N3CCN(C4CC4)CC3)c(Cl)c2)cnc2c1NCCO2 [Example 391, N-(3-chloro-4-(4-cyclopropylpiperazin-1-yl)phenyl)-4-((8-methyl-2,3-dihydro-1H-pyrido[2,3-b][1,4]oxazin-7-yl)amino)-2-oxo-1,2-dihydropyridine-3-carboxamide] | ≤ 0.01 µM
10 | COC1(CN(C)C)CCN(c2ccc(NC(=O)c3c(Nc4cnc5c(c4C)NCCO5)cc[nH]c3=O)cc2)CC1 [Example 392, N-(4-(4-((dimethylamino)methyl)-4-methoxypiperidin-1-yl)phenyl)-4-((8-methyl-2,3-dihydro-1H-pyrido[2,3-b][1,4]oxazin-7-yl)amino)-2-oxo-1,2-dihydropyridine-3-carboxamide] | ≤ 0.01 µM
11 | Cc1c(Nc2cc[nH]c(=O)c2C(=O)Nc2ccc(N3CCN(C)CC3)c(CCO)c2)cnc2c1NCCO2 [Example 394, N-(3-(2-hydroxyethyl)-4-(4-methylpiperazin-1-yl)phenyl)-4-((8-methyl-2,3-dihydro-1H-pyrido[2,3-b][1,4]oxazin-7-yl)amino)-2-oxo-1,2-dihydropyridine-3-carboxamide] | 0.01 to 0.1 µM
12 | Cc1c(Nc2cc[nH]c(=O)c2C(=O)Nc2ccc(N3CCC(N)C3)cc2)cnc2c1NCCO2 (stereo not shown) [Example 395, N-(4-(3-aminopyrrolidin-1-yl)phenyl)-4-((8-methyl-2,3-dihydro-1H-pyrido[2,3-b][1,4]oxazin-7-yl)amino)-2-oxo-1,2-dihydropyridine-3-carboxamide] | 0.01 to 0.1 µM
13 | COc1ncc(C(C)(C)O)c2cc(NC(=O)c3c(Nc4cnc5c(c4C)NCCO5)cc[nH]c3=O)ccc12 [Example 396, N-(4-(2-Hydroxypropan-2-yl)-1-methoxyisoquinolin-6-yl)-4-((8-methyl-2,3-dihydro-1H-pyrido[2,3-b][1,4]oxazin-7-yl)amino)-2-oxo-1,2-dihydropyridine-3-carboxamide] | 0.1 to 1 µM

Further lines, results first:

Row | IC50 | Compound
14 | ≤ 0.01 µM | Cc1c(Nc2cc[nH]c(=O)c2C(=O)Nc2ccc(N3CCN(CC(C)C)CC3)cc2)cnc2c1NCCO2 [Example 370, N-(4-(4-isobutylpiperazin-1-yl)phenyl)-4-((8-methyl-2,3-dihydro-1H-pyrido[2,3-b][1,4]oxazin-7-yl)amino)-2-oxo-1,2-dihydropyridine-3-carboxamide]
15 | 0.01 to 0.1 µM | Cc1c(Nc2cc[nH]c(=O)c2C(=O)Nc2ccc(N3CCN(c4nccs4)CC3)cc2)cnc2c1NCCO2 [Example 371, 4-((8-Methyl-2,3-dihydro-1H-pyrido[2,3-b][1,4]oxazin-7-yl)amino)-2-oxo-N-(4-(4-(thiazol-2-yl)piperazin-1-yl)phenyl)-1,2-dihydropyridine-3-carboxamide]
16 | 0.01 to 0.1 µM | Cc1c(Nc2cc[nH]c(=O)c2C(=O)Nc2ccc(N3CCN4C(=O)CCCC4C3)cc2)cnc2c1NCCO2 (stereo not shown) [Example 374, 4-((8-methyl-2,3-dihydro-1H-pyrido[2,3-b][1,4]oxazin-7-yl)amino)-2-oxo-N-(4-(6-oxooctahydro-2H-pyrido[1,2-a]pyrazin-2-yl)phenyl)-1,2-dihydropyridine-3-carboxamide]
17 | ≤ 0.01 µM | Cc1c(Nc2cc[nH]c(=O)c2C(=O)Nc2ccc(N3CCC(O)(CN(C)C)CC3)cc2)cnc2c1NCCO2 [Example 375, N-(4-(4-((dimethylamino)methyl)-4-hydroxypiperidin-1-yl)phenyl)-4-((8-methyl-2,3-dihydro-1H-pyrido[2,3-b][1,4]oxazin-7-yl)amino)-2-oxo-1,2-dihydropyridine-3-carboxamide]
18 | ≤ 0.01 µM | Cc1c(Nc2cc[nH]c(=O)c2C(=O)Nc2ccc(N3CCN4C(=O)N(C)CC4C3)cc2)cnc2c1NCCO2 (stereo not shown) [Example 377, 4-((8-methyl-2,3-dihydro-1H-pyrido[2,3-b][1,4]oxazin-7-yl)amino)-N-(4-(2-methyl-3-oxohexahydroimidazo[1,5-a]pyrazin-7(1H)-yl)phenyl)-2-oxo-1,2-dihydropyridine-3-carboxamide]
19 | ≤ 0.01 µM | Cc1c(Nc2cc[nH]c(=O)c2C(=O)Nc2ccc(N3CCN(C(C)c4ccn[nH]4)CC3)cc2)cnc2c1NCCO2 (stereo not shown) [Example 378, N-(4-(4-(1-(1H-pyrazol-5-yl)ethyl)piperazin-1-yl)phenyl)-4-((8-methyl-2,3-dihydro-1H-pyrido[2,3-b][1,4]oxazin-7-yl)amino)-2-oxo-1,2-dihydropyridine-3-carboxamide]
20 | ≤ 0.01 µM | Cc1c(Nc2cc[nH]c(=O)c2C(=O)Nc2ccc(N3CCN(C4COC4)CC3)c(F)c2)cnc2c1NCCO2 [Example 379, N-(3-fluoro-4-(4-(oxetan-3-yl)piperazin-1-yl)phenyl)-4-((8-methyl-2,3-dihydro-1H-pyrido[2,3-b][1,4]oxazin-7-yl)amino)-2-oxo-1,2-dihydropyridine-3-carboxamide]
21 | 0.01 to 0.1 µM | Cc1c(Nc2cc[nH]c(=O)c2C(=O)Nc2ccc(N3CCN(C4(C)COC4)CC3)cc2)cnc2c1NCCO2 [Example 380, 4-((8-methyl-2,3-dihydro-1H-pyrido[2,3-b][1,4]oxazin-7-yl)amino)-N-(4-(4-(3-methyloxetan-3-yl)piperazin-1-yl)phenyl)-2-oxo-1,2-dihydropyridine-3-carboxamide]
22 | 0.01 to 0.1 µM | Cc1c(Nc2cc[nH]c(=O)c2C(=O)Nc2ccc(N3CCC4(CC3)CC4)cc2)cnc2c1NCCO2 [Example 382, N-(4-(6-azaspiro[2.5]octan-6-yl)phenyl)-4-((8-methyl-2,3-dihydro-1H-pyrido[2,3-b][1,4]oxazin-7-yl)amino)-2-oxo-1,2-dihydropyridine-3-carboxamide]
23 | 0.01 to 0.1 µM | Cc1c(Nc2cc[nH]c(=O)c2C(=O)Nc2ccc(C3CCN(C(C)C)CC3)cc2)cnc2c1NCC(C)O2 (stereo not shown) [Example 384, 4-((3,8-dimethyl-2,3-dihydro-1H-pyrido[2,3-b][1,4]oxazin-7-yl)amino)-N-(4-(1-isopropylpiperidin-4-yl)phenyl)-2-oxo-1,2-dihydropyridine-3-carboxamide]
24 | ≤ 0.01 µM | CCN1CCN(c2c(F)cc(NC(=O)c3c(Nc4cnc5c(c4C)NCCO5)cc[nH]c3=O)cc2Cl)CC1 [Example 389, N-(3-Chloro-4-(4-ethylpiperazin-1-yl)-5-fluorophenyl)-4-((8-methyl-2,3-dihydro-1H-pyrido[2,3-b][1,4]oxazin-7-yl)amino)-2-oxo-1,2-dihydropyridine-3-carboxamide]
25 | 0.01 to 0.1 µM | CCN1CCN(c2c(F)cc(NC(=O)c3c(Nc4cnc5c(c4C)NCCO5)cc[nH]c3=O)cc2F)CC1 [Example 390, N-(4-(4-ethylpiperazin-1-yl)-3,5-difluorophenyl)-4-((8-methyl-2,3-dihydro-1H-pyrido[2,3-b][1,4]oxazin-7-yl)amino)-2-oxo-1,2-dihydropyridine-3-carboxamide]

Reference: patent US20250282794A1 (CURADEV PHARMA LTD, priority 2022, published 2025)
